Source: patent US9271961B2, “Bifunctional AKR1C3 inhibitors/androgen receptor modulators and methods of use thereof” (THE TRUSTEES OF THE UNIVERSITY OF PENNSYLVANIA, priority 2011, dated 2016)
Values belong to the compound of their own block, whether it stands above or below them.

Key:
[1] = system: AKR1C enzymes; assay: Inhibition of AKR1C enzymes (FIG. 20); assay type: biochemical
[2] = molecular target: T1, AKR1C3 (Homo sapiens (Human), UniProt P42330); assay: Inhibition of NADP+ dependent oxidation of S-tetralol by recombinant AKR1C3; assay type: biochemical; settings: for IC50: S-tetralol oxidation, substrate at KM
Protocol: The inhibitory potency of the compounds disclosed herein was determined using purified homogenous recombinant enzymes. Full concentration response studies were conducted and IC50 values calculated using Grafit 5.0 software. The compounds were evaluated for their effects on enzyme catalyzed oxidation of S-tetralol using a 96-well plate format.
The primary screen was also modified to report the following ratio: AKR1C2 IC50 value:AKR1C3 IC50 value. […] When bifunctional AKR1C3 and SARMs are sought the androgen receptor reporter gene assay is moved up in sequence.
Based on this assumption, the screening strategy adopted was to determine the inhibitory potency of each compound against AKR1C2 and AKR1C3 and use the ratio of IC50 value for AKR1C2:IC50 value for AKR1C3 as an index of compound selectivity for AKR1C3. The inhibitory potency of compounds on AKR1C2 and AKR1C3 was determined by measuring the inhibition of the NADP^+ dependent oxidation of S-tetralol.

[3] = molecular target: T1, AKR1C3; assay: Conversion of Δ4-AD to testosterone in LNCaP cells stably transfected with AKR1C3; assay type: cell-based; settings: for amount of testosterone formed from Δ4-AD: LNCaP-AKR1C3 cells; for conversion of Δ4-AD to testosterone: LNCaP-AKR1C3 transfected cells, 10 μM
Protocol: LNCaP cells were stably transfected with AKR1 C3 using the retroviral construct pLNCX-AKR1C3, and its expression was documented using both RT-PCR and immunoblot analysis using an isoform specific monoclonal AKR1C3 antibody (Byrns et al., 2012, J. Steroid Biochem. Mol. Biol. 130:7-15). Metabolism studies of 0.1 μM and 5.0 μM [^14C]-Δ^4-AD were conducted in LNCaP and LNCaP-AKR1C3 cells with the anticipation that the transfected cells would form more testosterone. The bulk of the metabolites formed in LNCaP cells were found in the aqueous phase. When this phase was treated with β-glucuronidase (200 units/mL at pH 6.6) and re-extracted, androsterone was the predominate metabolite released into the organic soluble fraction providing evidence for the formation of androsterone-3α-glucuronide. When LNCaP-AKR1C3 transfected cells were used, the bulk of the metabolites were again found in the aqueous phase. However, β-glucuronidase treatment of the aqueous phase yielded both androsterone and testosterone, providing evidence for testosterone formation by these cells.
Tertiary screens of the compounds of interest include: (a) inhibition of the conversion of Δ^4-AD to testosterone in LNCaP (AR dependent prostate cancer) cells stably transfected with AKR1C3; (b) inhibition of Δ^4-AD mediated cell proliferation in LNCaP cells stably transfected with AKR1C3; and (c) inhibition of growth of castrate resistant prostate cancer cells in culture.

[4] = molecular target: COX-2 (Homo sapiens (Human), UniProt P35354); assay: Screen against COX-2; assay type: biochemical
[5] = molecular target: T1, AKR1C3; assay: Inhibition of AKR1C3 catalyzed reduction of Δ4-androstene-3,17-dione to testosterone; assay type: biochemical
Excerpt: Compounds may be evaluated as selective reversible inhibitors of AKR1C3 by screening them against homogeneous recombinant AKR1C1-AKR1C4 expressed in E. coli. […] IC50 values are generated using steroid concentrations at KM.
The primary screen was also modified to report the following ratio: AKR1C2 IC50 value:AKR1C3 IC50 value. A high ratio reflects a high selectivity for AKR1C3 and data are used to generate heat-maps, FIG. 14. This method is preferred to measuring percent inhibition using a single concentration of 1.0 μM inhibitor, since this single point method is prone to identifying false positives. […] The leads may then be moved into secondary in vitro screens (complete screen against all human AKR isoforms; COX-1 and COX-2; and other relevant human 17β-HSD isoforms); tertiary screens using cell-based assays (inhibition of AKR1C3 mediated testosterone production and AKR1C3 mediated cell proliferation in prostate cancer cell lines; and modulation of the androgen receptor in reporter gene assays); and quaternary screens in xenograft models of CRPC. When bifunctional AKR1C3 and SARMs are sought the androgen receptor reporter gene assay is moved up in sequence.

[6] = molecular target: COX-1 (Homo sapiens (Human), UniProt P23219); assay: Screen against COX-1; assay type: biochemical
[7] = molecular target: T2, AR (Homo sapiens (Human), UniProt P10275); assay: AR stability / degradation in Hela cells; assay type: cell-based; settings: 10-40 μM, presence and absence of 0.1 nM 5α-DHT
[8] = molecular target: T2, AR; assay: AR nuclear translocation from the cytosol in HeLa 13 cells; settings: presence of DHT
Excerpt: AR LE and AR SE=long and short exposure to detect cytoplasmic AR. β-tubulin was used as a loading control.

[9] = system: mutated AR and PSA expression; assay: Mutated AR levels and PSA expression in LNCaP-AKR1C3 cells; assay type: cell-based; settings: presence of either 1.0 nM 5α-DHT or 100 nM Δ4-AD
[10] = system: prostatic specific antigen (PSA) gene expression; assay: AR regulated PSA gene expression in LNCaP cells; assay type: cell-based; settings: 10-30 μM, presence and absence of 5α-DHT (0.1-1.0 nM)
[11] = molecular target: aldose reductase (AKR1B1) (Homo sapiens (Human), UniProt P15121); assay: Secondary screen against aldose reductase; assay type: biochemical
[12] = molecular target: retinal reductase (AKR1B10) (Homo sapiens (Human), UniProt O60218); assay: Secondary screen against retinal reductase; assay type: biochemical

Compound: 4-chloro-N-phenylanthranilate [reference compound]
inhibition of AKR1C enzymes [1]: inhibits

Compound: O=C(O)c1ccccc1Nc1cccc(C(F)(F)F)c1 [Compound 1, Flufenamic Acid, reference compound]
IC50 [2]: 50 nM

Compound: O=C(O)c1cccc(Nc2ccccc2)c1 [Compound 3, 3-Phenylamino benzoic acid]
IC50 [2]: 940 nM

Compound: O=C(O)c1cccc(Nc2ccc([N+](=O)[O-])c3ccccc23)c1 [Compound 13, 3-((4-nitronaphthalen-1-yl)amino)benzoic acid]
inhibition of COX-2 [4]: failed to inhibit | pattern of inhibition of AKR1C3 ([5]; Δ4-AD as substrate, E.NADPH.Δ4-AD complex): competitive inhibition | Ki ([5]; Δ4-androstene-3,17-dione as substrate): 2470 nM | slope factor of the inhibition dose-response curve ([2]; AKR1C3): approximately two | Ki ([2]; S-tetralol as substrate): 58.2 nM | pattern of inhibition of AKR1C3 ([2]; S-tetralol as substrate, E.NADP+.S-tetralol complex): competitive inhibition | IC50 [2]: 75 nM | inhibition of COX-1 [6]: failed to inhibit | degradation of the AR [7]: dose-dependent degradation | cytoplasmic AR (prevention of nuclear localization of the AR) [8]: dose dependent increase in cytoplasmic AR | expression of the mutated AR and PSA [9]: decrease | expression of PSA [10]: block the expression of PSA | amount of testosterone formed from Δ4-AD [3]: significant decline | conversion of Δ4-AD to testosterone [3]: completely blocked | inhibition of aldose reductase (AKR1B1) [11]: failed to inhibit | inhibition of retinal reductase (AKR1B10) [12]: failed to inhibit

Continued, values first:

AKR1C3 inhibitory potency (in words) [2]: low nanomolar range | IC50 [2]: 36 nM
Compound: O=C(O)c1cccc(Nc2ccc([N+](=O)[O-])cc2)c1 [Compound 5, 3-[N-(4-nitrophenyl)amino]benzoic acid]

amount of testosterone formed from Δ4-AD [3]: significant decline
Compound: O=C(O)c1cccc(Nc2ccc(C(F)(F)F)cc2)c1 [Compound 7, 3-[N-(4-Trifluoromethylphenyl)amino]benzoic acid]

conversion of Δ4-AD to testosterone [3]: completely blocked
Compound: O=C(O)c1cccc(Nc2ccc(Cl)cc2)c1 [Compound 8, 3-[N-(4-Chlorophenyl)amino]benzoic acid]
